# Results taken from PMC5736709, “Unravelling the specificity and mechanism of sialic acid recognition by the gut symbiont Ruminococcus gnavus” (Nature Communications, 2017).
# “Also recorded” adds a separate entry of the source.
# Tests used:
# RgCBM40 = RgCBM40 (Mediterraneibacter gnavus (Ruminococcus gnavus), UniProt A7B557); assay: ITC of sialoglycans binding to RgCBM40 wild type; design: species or system Ruminococcus gnavus ATCC 29149; conditions: RgCBM40 WT; for Kd: ITC in PBS, 115-230 μM protein in cell, syringe 10 mM sugar (25 mM for Neu5Ac), * = estimate only, Kd too high to determine; for -T∆S / ∆G / ∆H: ITC, SD of three results
# Protocol: (§1) Isothermal titration calorimetry (ITC) experiments were performed using the PEAQ-ITC system (Malvern, Malvern, UK) with a cell volume of 200 µl. Prior to titration protein samples were exhaustively dialysed into PBS. The ligand was dissolved in the dialysis buffer. The cell protein concentration was 115 µM (except for mutant I95A where it was 173 µM and the wild-type interaction with 6′SL where it was 230 µM) and the syringe ligand concentration was 10 mM (25 mM for Neu5Ac). Controls with titrant (sugar) injected into buffer only were subtracted from the data. Analysis was performed using Malvern software, using a single-binding site model. The stoichiometry of binding sites was set to 1.0 as this was evident from the crystal structure. Quantitative and most qualitative experiments were carried out in triplicate.
# RgCBM40 I95A = molecular target: T1, RgCBM40 I95A (Mediterraneibacter gnavus (Ruminococcus gnavus), UniProt A7B557, I95A); assay: ITC of sialoglycans binding to RgCBM40 mutant I95A; design: species or system Ruminococcus gnavus ATCC 29149; conditions: for Kd: 173 µM protein, syringe 10 mM sugar (25 mM for Neu5Ac), * = estimate only
# T1 sequence (A7B557 50-237 I95A): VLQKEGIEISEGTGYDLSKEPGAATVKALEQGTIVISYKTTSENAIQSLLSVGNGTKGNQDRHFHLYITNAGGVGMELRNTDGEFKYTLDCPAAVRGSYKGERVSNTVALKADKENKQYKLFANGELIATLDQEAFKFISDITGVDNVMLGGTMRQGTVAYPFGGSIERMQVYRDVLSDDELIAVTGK
# Protocol: (§2) Site directed mutagenesis of RgGH33 to introduce the D282A mutation in the active site was carried out using the QuikChange kit, following the manufacturer’s instructions, Agilent (Santa Clara, CA, USA). Site-directed mutants of RgCBM40; I95A, Y116A, E126A, R128A, R204A and double mutant R128A/R204A, were obtained from NZyTech (Lisbon, Portugal). The primers are listed in Supplementary Table 4. The integrity of the RgGH33 and RgCBM40 mutants was checked by circular dichroism (CD).
# as §1
# RgCBM40 E126A = molecular target: T2, RgCBM40 E126A (Mediterraneibacter gnavus (Ruminococcus gnavus), UniProt A7B557, E126A); assay: ITC of sialoglycans binding to RgCBM40 mutant E126A; design: species or system Ruminococcus gnavus ATCC 29149; conditions: for Kd: ITC
# T2 sequence (A7B557 50-237 E126A): T1 sequence (A7B557 50-237 I95A)
# Protocol: as §2, §1
# RgCBM40 R128A = molecular target: T3, RgCBM40 R128A (Mediterraneibacter gnavus (Ruminococcus gnavus), UniProt A7B557, R128A); assay: ITC of sialoglycans binding to RgCBM40 mutant R128A; design: species or system Ruminococcus gnavus ATCC 29149; conditions: for Kd: ITC
# T3 sequence (A7B557 50-237 R128A): T1 sequence (A7B557 50-237 I95A)
# Protocol: as §2, §1
# RgCBM40 R128A/R204A = molecular target: T4, RgCBM40 R128A/R204A (Mediterraneibacter gnavus (Ruminococcus gnavus), UniProt A7B557, R128A/R204A); assay: ITC of sialoglycans binding to RgCBM40 double mutant R128A/R204A; design: species or system Ruminococcus gnavus ATCC 29149; conditions: for Kd: ITC
# T4 sequence (A7B557 50-237 R128A/R204A): T1 sequence (A7B557 50-237 I95A)
# Protocol: as §2, §1
# SpCBM40_NanC = molecular target: SpCBM40_NanC; design: method as in PMID 26370075; conditions: isolated S. pneumoniae SpCBM40_NanC ref 37; cited from earlier work
smiles,measurement,setting,value
"CC(=O)N[C@H]1[C@H]([C@H](O)[C@H](O)CO)O[C@@](O[C@H]2[C@@H](O)[C@@H](CO)O[C@@H](O[C@H]3[C@H](O)[C@@H](O)C(O)O[C@@H]3CO)[C@@H]2O)(C(=O)O)C[C@@H]1O (stereo partly drawn) [3′SL, α2-3 sialyllactose]",Kd,RgCBM40,570 µM
same,-T∆S,RgCBM40,1.47 ± 0.77 kcal/mol
same,∆G,RgCBM40,-4.43 ± 0.05 kcal/mol
same,∆H,RgCBM40,-5.90 ± 0.72 kcal/mol
same,-T∆S,RgCBM40 I95A,0.97 ± 0.47 kcal/mol
same,∆G,RgCBM40 I95A,-3.74 ± 0.04 kcal/mol
same,∆H,RgCBM40 I95A,-4.71 ± 0.43 kcal/mol
same,Kd,RgCBM40 I95A,1820 µM
same,Binding by ITC (in words),RgCBM40 E126A,abolished
same,Kd,RgCBM40 E126A,> 25000 µM
same,Binding by ITC (in words),RgCBM40 R128A,abolished; also recorded: loss of binding
same,Kd,RgCBM40 R128A,> 25000 µM
same,Binding by ITC (in words),RgCBM40 R128A/R204A,abolished; also recorded: loss of binding
same,Kd,RgCBM40 R128A/R204A,> 25000 µM
same,Kd,SpCBM40_NanC,~1500 µM
"CC(=O)N[C@H]1[C@H]([C@H](O)[C@H](O)CO)O[C@@](OC[C@H]2O[C@@H](O[C@H]3[C@H](O)[C@@H](O)C(O)O[C@@H]3CO)[C@H](O)[C@@H](O)[C@H]2O)(C(=O)O)C[C@@H]1O (stereo partly drawn) [6′SL, α2,6-sialyllactose]",Kd,RgCBM40,1700 µM
same,-T∆S,RgCBM40,5.82 ± 0.48 kcal/mol
same,∆G,RgCBM40,-3.78 ± 0.05 kcal/mol
same,∆H,RgCBM40,-9.61 ± 0.44 kcal/mol
same,-T∆S,RgCBM40 I95A,-0.12 ± 0.3 kcal/mol
same,∆G,RgCBM40 I95A,-3.91 ± 0.07 kcal/mol
same,∆H,RgCBM40 I95A,-3.79 ± 0.24 kcal/mol
same,Kd,RgCBM40 I95A,1370 µM
same,Binding by ITC (in words),RgCBM40 E126A,abolished
same,Kd,RgCBM40 E126A,> 25000 µM
same,Binding by ITC (in words),RgCBM40 R128A,abolished
same,Kd,RgCBM40 R128A,> 25000 µM
same,Binding by ITC (in words),RgCBM40 R128A/R204A,abolished
same,Kd,RgCBM40 R128A/R204A,> 25000 µM
same,Kd,SpCBM40_NanC,~1600 µM
